Read-outs that look alike come from different tables or passages of the source.
Legend:
[1] = test system: human colon cancer (HT-29); experiment: MTT cytotoxicity assay, HT-29; assay type: cell-based; settings: Homo sapiens; HT-29, MTT, 72 h; read-out: Antiproliferative Activity IC50 ± SEM, HT-29
[2] = test system: pancreatic cancer (PaCa-2); experiment: MTT cytotoxicity assay, PaCa-2; assay type: cell-based; settings: PaCa-2, MTT, 72 h; read-out: Antiproliferative Activity IC50 ± SEM, PaCa-2
[3] = test system: human malignant melanoma (A375); experiment: MTT cytotoxicity assay, A375; assay type: cell-based; settings: Homo sapiens, A-375, 72 h, read-out: Antiproliferative Activity IC50 ± SEM, A375
[4] = test system: lung cancer (H-460); experiment: MTT cytotoxicity assay, H-460; assay type: cell-based; settings: Homo sapiens, NCI-H460; H-460, MTT, 72 h; read-out: Antiproliferative Activity IC50 ± SEM, H-460
[5] = test system: pancreatic ductal cancer (Panc-1); experiment: MTT cytotoxicity assay, Panc-1; assay type: cell-based; settings: Homo sapiens; Panc-1, MTT, 72 h; read-out: Antiproliferative Activity IC50 ± SEM, Panc-1
[6] = biological target: T1, EGFR (Homo sapiens, UniProt P00533); experiment: EGFR kinase inhibition assay (EGFR Kinase Assay Kit); assay type: biochemical; settings: triplicates; read-out: EGFR Inhibition IC50 ± SEM
T1 construct: purchased PBS Bioscience (so in the source)
T1 sequence (P00533 25-1210): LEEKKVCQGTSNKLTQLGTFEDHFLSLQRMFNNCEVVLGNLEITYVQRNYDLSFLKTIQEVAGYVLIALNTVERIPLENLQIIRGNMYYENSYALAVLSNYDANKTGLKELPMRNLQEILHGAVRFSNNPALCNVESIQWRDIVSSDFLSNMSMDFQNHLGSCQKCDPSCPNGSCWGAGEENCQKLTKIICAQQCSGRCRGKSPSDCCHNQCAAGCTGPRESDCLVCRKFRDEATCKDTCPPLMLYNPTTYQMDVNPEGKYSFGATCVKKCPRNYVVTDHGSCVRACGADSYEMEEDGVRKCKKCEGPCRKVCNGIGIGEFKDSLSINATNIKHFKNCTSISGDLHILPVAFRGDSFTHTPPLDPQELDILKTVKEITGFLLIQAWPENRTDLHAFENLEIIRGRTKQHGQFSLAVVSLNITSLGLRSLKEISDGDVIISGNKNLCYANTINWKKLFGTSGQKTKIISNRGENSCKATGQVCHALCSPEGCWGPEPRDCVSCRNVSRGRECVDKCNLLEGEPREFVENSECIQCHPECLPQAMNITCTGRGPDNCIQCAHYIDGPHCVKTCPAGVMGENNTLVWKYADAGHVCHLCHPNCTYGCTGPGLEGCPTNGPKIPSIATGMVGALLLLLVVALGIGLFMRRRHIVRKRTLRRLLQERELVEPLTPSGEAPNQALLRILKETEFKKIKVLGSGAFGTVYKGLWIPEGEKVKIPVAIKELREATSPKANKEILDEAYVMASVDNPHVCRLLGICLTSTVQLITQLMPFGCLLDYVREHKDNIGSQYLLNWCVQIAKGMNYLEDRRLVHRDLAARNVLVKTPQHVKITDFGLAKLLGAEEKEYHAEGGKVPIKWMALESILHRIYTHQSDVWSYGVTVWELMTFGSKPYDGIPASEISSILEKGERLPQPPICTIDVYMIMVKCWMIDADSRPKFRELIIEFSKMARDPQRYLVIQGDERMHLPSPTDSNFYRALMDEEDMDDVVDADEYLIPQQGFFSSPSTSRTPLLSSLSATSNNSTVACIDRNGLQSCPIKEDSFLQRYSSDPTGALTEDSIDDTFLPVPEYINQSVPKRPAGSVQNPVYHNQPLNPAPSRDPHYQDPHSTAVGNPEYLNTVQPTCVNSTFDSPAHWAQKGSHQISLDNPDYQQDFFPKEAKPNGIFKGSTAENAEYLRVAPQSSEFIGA

[7] = biological target: T2, human recombinant COX-2 (Homo sapiens, UniProt P35354); experiment: Cyclooxygenase assay (PGE2 quantification), COX-2; assay type: biochemical; settings: mean ± SD; n = 3
T2 construct: purchased Cayman Chemicals
T2 sequence (P35354 18-604): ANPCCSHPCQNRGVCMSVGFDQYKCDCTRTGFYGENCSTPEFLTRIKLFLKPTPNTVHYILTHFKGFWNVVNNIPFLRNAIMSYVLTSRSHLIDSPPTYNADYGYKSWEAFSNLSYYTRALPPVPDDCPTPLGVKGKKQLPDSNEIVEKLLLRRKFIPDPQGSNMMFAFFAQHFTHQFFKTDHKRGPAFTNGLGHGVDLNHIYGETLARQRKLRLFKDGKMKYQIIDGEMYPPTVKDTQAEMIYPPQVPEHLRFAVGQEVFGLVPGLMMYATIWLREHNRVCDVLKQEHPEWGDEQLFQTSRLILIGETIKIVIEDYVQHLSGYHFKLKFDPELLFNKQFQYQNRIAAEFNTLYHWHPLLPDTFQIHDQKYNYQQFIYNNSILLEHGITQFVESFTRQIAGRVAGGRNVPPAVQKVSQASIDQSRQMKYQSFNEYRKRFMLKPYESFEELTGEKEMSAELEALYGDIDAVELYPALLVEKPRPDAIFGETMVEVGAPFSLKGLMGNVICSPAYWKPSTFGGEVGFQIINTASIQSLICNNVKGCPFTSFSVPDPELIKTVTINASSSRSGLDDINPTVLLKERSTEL

[8] = Cell viability % (MTT, normal cell line); settings: human, MRC5 normal fetal lung fibroblast cells
[9] = biological target: T3, Sheep-derived COX-1 (Ovis aries, UniProt P05979); experiment: Cyclooxygenase assay (PGE2 quantification), COX-1
T3 sequence (P05979 25-600): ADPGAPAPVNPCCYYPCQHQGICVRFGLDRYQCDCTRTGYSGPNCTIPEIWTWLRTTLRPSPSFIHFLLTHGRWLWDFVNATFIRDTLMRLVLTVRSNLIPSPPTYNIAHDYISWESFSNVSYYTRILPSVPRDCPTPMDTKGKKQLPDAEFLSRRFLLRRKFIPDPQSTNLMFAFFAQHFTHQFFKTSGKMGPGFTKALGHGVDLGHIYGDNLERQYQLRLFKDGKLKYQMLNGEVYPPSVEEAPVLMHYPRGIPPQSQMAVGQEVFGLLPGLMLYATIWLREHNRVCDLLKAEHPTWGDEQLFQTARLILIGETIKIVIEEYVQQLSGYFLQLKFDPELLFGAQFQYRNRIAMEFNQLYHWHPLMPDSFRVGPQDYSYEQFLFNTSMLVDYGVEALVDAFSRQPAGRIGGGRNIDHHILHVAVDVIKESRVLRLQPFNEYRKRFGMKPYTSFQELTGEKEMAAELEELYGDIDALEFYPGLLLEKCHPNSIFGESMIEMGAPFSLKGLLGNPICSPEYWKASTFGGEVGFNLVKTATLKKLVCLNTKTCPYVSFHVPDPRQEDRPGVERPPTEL

[10] = biological target: T4, human recombinant sPLA2-V (Homo sapiens, UniProt P39877); experiment: Secretory PLA2-V activity assay (Ellman's photometric method)
T4 sequence (P39877 21-138): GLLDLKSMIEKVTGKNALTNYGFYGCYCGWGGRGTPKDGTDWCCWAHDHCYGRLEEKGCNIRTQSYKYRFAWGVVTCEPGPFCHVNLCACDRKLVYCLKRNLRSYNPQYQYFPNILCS

[11] = test system: IL-6; experiment: ELISA, LPS-induced IL-6 release in RAW264.7 macrophages; assay type: cell-based, mouse; settings: for inhibition at 10 µM: Mus musculus, RAW264.7, RAW 264.7, compound 10 µM for 2 h, then LPS 0.5 µg/mL for 22 h; for Relative Amount of LPS (IL-6): RAW 264.7, compound 10 µM, IL-6 relative to LPS control = 100
[12] = test system: TNF-α; experiment: ELISA, LPS-induced TNF-α release in RAW264.7 macrophages; assay type: cell-based, mouse; settings: for inhibition at 10 µM: Mus musculus, RAW264.7, RAW 264.7, compound 10 µM for 2 h, then LPS 0.5 µg/mL for 22 h; for Relative Amount of LPS (TNF-α): RAW 264.7, compound 10 µM, TNF-α relative to LPS control = 100

| Compound | IC50 [6] [µM] | IC50 [7] [µM] | IC50 [9] [µM] | IC50 [10] [µM] | IC50 [1] [µM] | IC50 [2] [µM] | IC50 [3] [µM] | IC50 [4] [µM] | IC50 [5] [µM] | viability at 72 h [8] [%] | inhibition at 10 µM [11] [%] | Relative Amount of LPS (IL-6) [11] | inhibition at 10 µM [12] [%] | Relative Amount of LPS (TNF-α) [12] | IC50 ([10]; read-out: sPLA2-V IC50, mean ± SD, n = 3) [µM] |
| --- | --- | --- | --- | --- | --- | --- | --- | --- | --- | --- | --- | --- | --- | --- | --- |
| CC(=O)c1cccc(/N=N/c2ccc(O)c3ccccc23)c1 [Compound A4, (E)-1-(3-((4-Hydroxynaphthalen-1-yl)diazenyl)phenyl)ethan-1-one] | 3.2 ± 0.8 | 16.8 ± 2.43 | 11.1 ± 1.05 | 14.1 ± 1.52 | 2.7 ± 0.6 | 2 ± 0.6 | 4.4 ± 1.9 | 3.4 ± 1 | 2 ± 0.4 | 87.4 ± 1.7 | 46 | 54 | 49 | 51 |  |
| CC(=O)c1cccc(/N=N/c2ccc(O)cc2)c1 [Compound A1] |  |  |  |  | 8.3 ± 2.1 | 8.6 ± 1.2 | 9.3 ± 1.9 | 7.4 ± 2.2 | 9.1 ± 1.8 | 80.3 ± 1.6 |  |  |  |  |  |
| C#Cc1cccc(Nc2ncnc3cc(OCCOC)c(OCCOC)cc23)c1 [Erlotinib, reference compound] |  |  |  |  | 0.07 ± 0.04 | 0.06 ± 0.04 | 4.14 ± 1.2 | 0.04 ± 0.02 | 0.05 ± 0.02 |  |  |  |  |  |  |
| CC(=O)c1cccc(/N=N/c2ccc(O)cc2O)c1 [Compound A2, (E)-1-(3-((2,4-Dihydroxyphenyl)daizenyl)phenyl)ethan-1-one] |  | 27.9 ± 1.65 | 22.2 ± 2.45 | 7.25 ± 1.24 | 9.2 ± 2.5 | 9.6 ± 1.5 | 8.4 ± 2.1 | 5.9 ± 2.4 | 9.6 ± 2 | 90.4 ± 1.9 |  |  |  |  |  |
| CC(=O)c1cccc(/N=N/c2ccc(O)c3ncccc23)c1 [Compound A6, (E)-1-(3-((8-Hydroxyquinolin-5-yl)diazenyl)phenyl)ethan-1-one] |  | 5.21 ± 1.2 | 4.85 ± 1.2 | 7.42 ± 1.41 | 7.6 ± 1.4 | 9.5 ± 1.9 | 9.5 ± 1.5 | 8.8 ± 2.3 | 6.9 ± 2.1 | 82.5 ± 1.7 |  |  |  |  |  |
| CC(=O)c1cccc(/N=N/c2c(O)ccc3ccccc23)c1 [Compound A5, (E)-1-(3-((2-Hydroxynaphthalen-1-yl)diazenyl)phenyl)ethan-1-one] |  | 14.2 ± 1.79 | 9.23 ± 1.64 | 4.24 ± 1.16 | 11.9 ± 2.5 | 10.5 ± 1.9 | 9.6 ± 2.4 | 9.2 ± 1.2 | 9.6 ± 1.8 | 88.2 ± 1.2 |  |  |  |  |  |
| C[C@@H]1C[C@H]2[C@@H]3CCC4=CC(=O)C=C[C@]4(C)[C@@]3(F)[C@@H](O)C[C@]2(C)[C@@]1(O)C(=O)CO [Dexamethasone, reference compound] |  |  |  |  |  |  |  |  |  |  |  |  |  |  | 0.57 ± 0.06 |

Second part, led by results:

| IC50 [6] [µM] | IC50 [7] [µM] | IC50 [9] [µM] | IC50 [10] [µM] | Compound | IC50 [1] [µM] | IC50 [2] [µM] | IC50 [3] [µM] | IC50 [4] [µM] | IC50 [5] [µM] | viability at 72 h [8] [%] | inhibition at 10 µM [11] [%] | Relative Amount of LPS (IL-6) [11] | inhibition at 10 µM [12] [%] | Relative Amount of LPS (TNF-α) [12] | IC50 ([10]; read-out: sPLA2-V IC50, mean ± SD, n = 3) [µM] |
| --- | --- | --- | --- | --- | --- | --- | --- | --- | --- | --- | --- | --- | --- | --- | --- |
| 4.9 ± 0.9 | 32.1 ± 1.4 | 5.14 ± 1.27 | 14.2 ± 1.32 | O=C(/C=C/c1ccc(F)cc1)c1cccc(/N=N/c2ccc(O)cc2O)c1 [Compound C8, (E)-1-(3-((E)-(2,4-Dihydroxyphenyl)diazenyl)phenyl)-3-(4-fluorophenyl) prop-2-en-1-one] | 2.5 ± 7 | 2.8 ± 0.6 | 2.6 ± 0.5 | 2.2 ± 0.5 | 1.9 ± 0.7 | 83.5 ± 1.2 |  |  |  |  |  |
| 2.9 ± 0.4 | 6.89 ± 0.8 | 7.1 ± 1.29 | 2.51 ± 1.05 | CN(C)c1ccc(/C=C/C(=O)c2cccc(/N=N/c3ccc(O)c4ccccc34)c2)cc1 [Compound C16, (E)-3-(4-(Dimethylamino)phenyl)-1-(3-((E)-(4-hydroxynaphthalen-1-yl)diazenyl)phenyl) prop-2-en-1-one] | 1.8 ± 0.4 | 1.9 ± 0.5 | 2.8 ± 1 | 2.9 ± 1 | 1.8 ± 0.5 | 92.5 ± 2 | 69 | 31 | 72 | 28 |  |
|  | 19.2 ± 1.52 | 18.3 ± 1.27 | 5.06 ± 1.2 | CN(C)c1ccc(/C=C/C(=O)c2cccc(/N=N/c3ccc(O)cc3)c2)cc1 [Compound C13, (E)-3-(4-(Dimethylamino)phenyl)-1-(3-((E)-(4-hydroxyphenyl)diazenyl)phenyl)prop-2-en-1-one] | 7.8 ± 1.8 | 7.4 ± 1.7 | 8.4 ± 1.5 | 6.6 ± 1.2 | 8.7 ± 1.4 | 90.6 ± 1.7 |  |  |  |  |  |
| 0.8 ± 0.3 | 1.27 ± 0.3 | 8.57 ± 1.89 | 2.74 ± 1.24 | O=C(/C=C/c1ccc(F)cc1)c1cccc(/N=N\c2ccc(O)c(C(=O)O)c2)c1 [Compound C9, 5. -((Z)-(3-((E)-3-(4-Fluorophenyl)acryloyl)phenyl)diazenyl)-2-hydroxybenzoic acid] | 1.2 ± 0.3 | 2.1 ± 0.3 | 3.2 ± 1.1 | 1.2 ± 0.2 | 1.8 ± 0.4 | 90.2 ± 4.1 | 77 | 23 | 74 | 26 |  |
|  | 5.29 ± 1.1 | 49.1 ± 2.69 | 9.45 ± 1.67 | CN(C)c1ccc(/C=C/C(=O)c2cccc(/N=N\c3c(O)ccc4ccccc34)c2)cc1 [Compound C17, (E)-3-(4-(dimethylamino)phenyl)-1-(3-((Z)-(2-hydroxynaphthalen-1-yl)diazenyl)phenyl) prop-2-en-1-one] | 9.2 ± 1.6 | 7.5 ± 1.9 | 8.8 ± 2.5 | 5.6 ± 2.1 | 2.5 ± 1.2 | 87.2 ± 1.4 |  |  |  |  |  |
| 5.8 ± 1.1 | 29.4 ± 1.73 | 7.52 ± 1.42 | 24.7 ± 1.59 | O=C(/C=C/c1ccc(F)cc1)c1cccc(/N=N/c2ccc(O)cc2)c1 [Compound C7, (E)-3-(4-Fluorophenyl)-1-(3-((E)-(4-hydroxyphenyl)diazenyl)phenyl) prop-2-en-1-one] | 4.5 ± 1.7 | 2.9 ± 1.7 | 5.3 ± 1.5 | 5 ± 1.4 | 4.8 ± 1.6 | 82.6 ± 1.2 |  |  |  |  |  |
|  | 3.2 ± 0.6 | 40.2 ± 3.42 | 8.29 ± 0.88 | CN(C)c1ccc(/C=C/C(=O)c2cccc(/N=N\c3ccc(O)c4ncccc34)c2)cc1 [Compound C18, (E)-3-(4-(dimethylamino)phenyl)-1-(3-((Z)-(8-hydroxyquinolin-5-yl)diazenyl)phenyl) prop-2-en-1-one] | 6.7 ± 0.6 | 6.4 ± 1.5 | 8.8 ± 2.5 | 6.3 ± 1.4 | 6.4 ± 0.4 | 88.4 ± 2.9 | 73 |  | 71 | 29 |  |
|  | 5.14 ± 1.1 | 11.5 ± 1.2 | 7.04 ± 1.29 | CN(C)c1ccc(/C=C/C(=O)c2cccc(/N=N/c3ccc(O)cc3O)c2)cc1 [Compound C14, (E)-1-(3-((E)-(2,4-Dihydroxyphenyl)diazenyl)phenyl)-3-(4-(dimethylamino)phenyl) prop-2-en-1-one] | 6.5 ± 1.4 | 5.9 ± 1.9 | 4.9 ± 1.6 | 5.2 ± 1.3 | 4.6 ± 1.7 | 89.4 ± 2.1 |  |  |  |  |  |
